Measured values from US9345711B2, “Methods for acute and long-term treatment of drug addiction” (DemeRx, Inc., priority 2014, dated 2016).
“Also recorded” adds a separate entry of the source.

Experiments:
[1] = Pupillometry (pupillary miosis) in healthy volunteers; format: in vivo, human
Description: (§1) Pulse oximetry and capnography data were collected continuously using a GE Carescape B650 monitoring system from 2 hours prior to dosing and until six hours after dosing, and thereafter at 12, 24, 48 and 72 hours post-dosing. […] Pupillary miosis was assessed by pupillometry.

[2] = Efficacy of noribogaine in opioid-dependent participants: time to resumption of opioid substitution treatment; format: in vivo, human; settings: for average time to resumption of opioids: single oral dose
Description: (§2) The efficacy of noribogaine in humans was evaluated in opioid-dependent participants in a randomized, placebo-controlled, double-blind trial. […] See U.S. Provisional Application Ser. No. 61/852,485, filed Mar. 15, 2013, which is incorporated herein by reference in its entirety.
(§3) In the first cohort, six patients were orally administered a single dose of 60 mg noribogaine, and three patients received placebo. In the second cohort, five patients were orally administered a single dose of 120 mg noribogaine, and three patients received placebo.
FIG. 3 indicates the serum noribogaine concentration over time. Serum concentrations for 120 mg dose (black squares) are estimated based on data from the 60 mg dose (gray diamonds).

[3] = Safety and tolerability of noribogaine in healthy volunteers (adverse events, vital signs, ECG); format: in vivo, human
Description: as §1
(§4) Safety and tolerability of noribogaine were tested in the group of volunteers from Example 1. […] Safety evaluations included clinical monitoring, recording of adverse events (AEs), safety laboratory tests, vital signs, ECG telemetry from −2 h to 6 h after dosing, and 12-lead electrocardiograms (ECGs) up to 216 hours post-dosing.

[4] = Cold pressor test (analgesic effect) in healthy volunteers; format: in vivo, human
Description: Analgesic effect was assessed based on duration of hand immersion in ice water and on visual analog scale (VAS) pain scores upon hand removal from the water bath.
as §4

[5] = Safety and QT interval in opioid-dependent participants; format: in vivo, human; settings: for Mean prolongation of the QT interval: opioid-dependent patients
Description: as §2, §3

[6] = Pharmacokinetics of noribogaine in healthy volunteers after single oral dose (plasma, LCMSMS)
[7] = after adjusting for baseline differences, p>0.9
[8] = 3 mg dose group, healthy volunteers
[9] = opioid-dependent participants, single oral 60 mg or 120 mg
[10] = across dose groups (3-60 mg), healthy volunteers
[11] = plasma glucuronide after single oral 30 mg noribogaine, healthy volunteers, mean (SD), n = 6
[12] = plasma glucuronide after single oral 60 mg noribogaine, healthy volunteers, mean (SD), n = 6

CC[C@H]1CC2C[C@H]3c4[nH]c5ccc(O)cc5c4CCN(C2)C13 [Noribogaine]
pupil diameter, each dose group vs placebo (ANOVA) [1, 7]: no statistically significant differences
pupillary constriction ([1]; healthy volunteers, 3-60 mg single oral dose): no evidence of pupillary constriction
average time to resumption of opioids ([2]; first cohort, blinded: 60 mg noribogaine (6 patients) or placebo (3 patients)): approximately 8.7 hours
time to resumption of opioids longer than reported for untreated patients in a similar study ([2]; first cohort, blinded: 60 mg noribogaine or placebo): ~2 h
average time to resumption of OST ([2]; five presumed noribogaine-treated patients of second cohort (imputed, 120 mg), placebo construed from no QT prolongation): approximately 26.8 hours
impact on withdrawal symptoms in addicted patients ([2]; lower dosing of noribogaine, human clinical studies (summary statement)): minimal impact on withdrawal symptoms
average time to resumption of opioids ([2]; second cohort, blinded: 120 mg noribogaine (5 patients) or placebo (3 patients)): approximately 23 hours
adverse events, Mild [3, 8]: Dizziness; also recorded: Epistaxis; also recorded: Headache; also recorded: Back pain
adverse events, Moderate [3, 8]: Headache
number of adverse events reported ([3]; 3 mg dose group, two subjects): five adverse events
adverse events, Mild ([3]; 10 mg dose group, healthy volunteers): Headache
number of adverse events reported ([3]; 10 mg dose group, single subject): one adverse event
adverse events, Mild ([3]; 30 mg dose group, healthy volunteers): Headache
number of adverse events reported ([3]; 30 mg dose group, single subject): one adverse event
intensity of adverse events ([3]; all dose groups, all resolved prior to study completion): mild-moderate intensity
changes in oximetry, capnography or respiratory rate ([3]; healthy volunteers, 3-60 mg): no changes in oximetry or capnography, or changes in respiratory rate
changes in vital signs or safety laboratory tests ([3]; healthy volunteers, 3-60 mg): no changes in vital signs or safety laboratory tests of note
VAS pain scores, each dose group vs placebo (ANOVA) ([4]; after adjusting for baseline differences, p=0.17): no statistically significant differences
duration of hand immersion, each dose group vs placebo (ANOVA) [4, 7]: no statistically significant differences
analgesic effect in the cold pressor test ([4]; healthy volunteers, 3-60 mg single oral dose, 1° C. water): no analgesic effect
Mean prolongation of the QT interval ([5]; first cohort (60 mg noribogaine or placebo)): less than 10 ms
adverse effects [5, 9]: No adverse effects
hallucinatory effects [5, 9]: no hallucinatory effects
Mean prolongation of the QT interval ([5]; second cohort (120 mg noribogaine or placebo)): less than 40 ms
prolongation of the treated patient's QT interval ([5]; summary statement, increases in opioid addicted patients compared to healthy individuals): dose dependent prolongation
dose-proportionality of Cmax and AUC ([6]; 3-60 mg single oral doses, linear regression): increased linearly with dose
Mean half-life estimates [6, 10]: 28 to 50 h
Volume of distribution [6, 10]: 1417 to 3086 L
CL/F ([6]; healthy male volunteers, single oral 3 mg noribogaine, mean (SD), n = 6): 41.4 (7.0) L/h
CL/F ([6]; healthy male volunteers, single oral 10 mg noribogaine, mean (SD), n = 6): 42.3 (12.0) L/h
CL/F ([6]; healthy male volunteers, single oral 30 mg noribogaine, mean (SD), n = 6): 46.9 (16.4) L/h
Tmax ([6]; healthy male volunteers, single oral 30 mg noribogaine, plasma, mean (SD), n = 6): 1.8 (0.6) hr
CL/F ([6]; healthy male volunteers, single oral 60 mg noribogaine, mean (SD), n = 6): 34.0 (11.4) L/h
time of peak concentrations after oral dosing ([6]; healthy volunteers, 3-60 mg dose groups): 2 to 3 h

CC[C@H]1C[C@@H]2C[C@H]3c4[nH]c5ccc(OC6OC(C(=O)O)C(O)C(O)C6O)cc5c4CCN(C2)[C@@H]13 (stereo partly drawn) [Noribogaine glucuronide]
AUC0-216 of noribogaine glucuronide [6, 11]: 25.7 (9.1) ng · hr/ml
AUC0-∞ of noribogaine glucuronide [6, 11]: 25.8 (9.3) ng · hr/ml
Cmax of noribogaine glucuronide [6, 11]: 1.8 (0.6) ng/ml
Tmax of noribogaine glucuronide [6, 11]: 3.0 (0.6) hr
t1/2 of noribogaine glucuronide [6, 11]: 20.6 (4.9) hr
AUC0-216 of noribogaine glucuronide [6, 12]: 65.0 (21.5) ng · hr/ml
AUC0-∞ of noribogaine glucuronide [6, 12]: 67.1 (21.9) ng · hr/ml
Cmax of noribogaine glucuronide [6, 12]: 4.1 (1.2) ng/ml
Tmax of noribogaine glucuronide [6, 12]: 3.8 (1.2) hr
t1/2 of noribogaine glucuronide [6, 12]: 23.1 (3.0) hr
time of peak glucuronide concentrations after noribogaine dosing ([6]; plasma, 30 mg and 60 mg noribogaine dose groups): 3 to 4 h
